Assay results reported in US3954871A, “1-(4-Alkylthiopheny)-2-substituted amino-alcohols and their salts” (Continental Pharma, priority 1969, dated 1976).
Structures can show the parent of a compound that is named as a salt. Where two headings read alike, the source gives them in different places.

How the values were obtained:
[1] = Solubility of salt in water; type: physicochemical
Experimental: To 1.20 g of 1-(3-methyl-4-methylthiophenyl)-2-isopropylaminoethanol in 40 ml of water, 1.96 ml of a 50% gluconic acid solution are added. The mixture is heated in water-bath during 1 hour at 70°, then the solution is lyophilised (2.18 g of the salt obtained are soluble in 5 ml of water and give a pH of 4.6).
To 1.2 g of 1-(3-methyl-4-methylthiophenyl)-2-isopropylaminoethanol in 32 ml of water, 0.53 g of a 85% aqueous lactic acid solution are added. The product is heated in a water-bath for 2 hours at 50°, then the solution is lyophilised. (1.55g of the salt obtained are soluble in 5 ml of water).

[2] = test system: isolated auricles of guinea pigs; details: dose 1.10 - 6 g/ml of bath
in vivo = details: mouse, ip
[3] = Local anaesthesic activity; type: in vivo; details: read-out: Local anaesthesic activity ED50
mice = assay: Anti-arrhythmic activity in mice; type: in vivo; details: Mus musculus, po, 0.5 h, read-out: Anti-arrhythmic activity: number of mice protected in relation with the number of tested mice
Experimental: ^(4) Number of mice protected in relation with the number of tested
mice (dose = 100 mg/kg per os; recording 30 min. after administration)

[4] = Peripherical vasodilatator activity (intra-arterial); type: in vivo; details: dose = 30 γ/kg intra-arterial
Excerpt: activity equal to that of papaverine; ++++ = activity higher than that of
papaverine (dose = 30 γ /kg intra-arterial)

[5] = 100 mg/kg per os, recording 30 min. after administration

With CSc1ccc(C(O)CNC(C)C)cc1C (stereo not shown) [1-(3-Methyl-4-methylthiophenyl)-2-isopropylaminoethanol gluc] [1-(3-Methyl-4-methylthiophenyl)-2-isopropylaminoethanol gluconate] the “pH of solution of salt in water” value ([1]; 2.18 g in 5 ml of water) was 4.6 and the “amount of salt soluble in 5 ml of water” value [1] was no less than 2.18 g.
For CSc1ccc(C(O)CNC(C)C)cc1C (stereo not shown) [1-(3-Methyl-4-methylthiophenyl)-2-isopropylaminoethanol lact] [1-(3-Methyl-4-methylthiophenyl)-2-isopropylaminoethanol lactate], the “amount of salt soluble in 5 ml of water” value [1] was no less than 1.55 g.
In the case of CSc1ccc(C(O)CN2CCCCC2)cc1C (stereo not shown) [CH3 S--, 3CH3 (amine drawn)], the “Protection against anoxia, activity” value [2] is reported as “+”.
With CSc1ccc(C(O)CNC2CCCCC2)cc1C (stereo not shown) [CH3 S--, 3CH3 (amine drawn)] the “Protection against anoxia, activity” value [2] was “++”.
With COc1ccc(Cc2nccc3cc(OC)c(OC)cc23)cc1OC [Papaverine, reference compound] the LD50 (in vivo) was 300 mg/kg and the “Protection against anoxia, activity” value [2] was 0.
In the case of CCN(CC)CCOC(=O)c1ccc(N)cc1 [Procaine, reference compound], the ED50 [3] is reported as 1.8 mg/kg.
With CC(C)NCC(O)COc1cccc2ccccc12 (stereo not shown) [Propranolol, reference compound] the ED50 [3] was 1.4 mg/kg, the “Protection against anoxia, activity” value [2] was 0 and the responders at 100 mg/kg (mice) was 100%.
C=C[C@H]1C[N@@]2CC[C@H]1C[C@@H]2[C@@H](O)c1ccnc2ccc(OC)cc12 [Quinidine, reference compound] gave a responders at 100 mg/kg (mice; [5]) of 20%.
In the case of CSc1ccc(C(O)CNC(C)C)cc1C (stereo not shown) [Table III No. 1, 1-(3-methyl-4-methylthiophenyl)-2-isopropylaminoethanol], the ED50 [3] is reported as 4.5 mg/kg, the LD50 (in vivo) is reported as 150 mg/kg and the “Protection against anoxia, activity” value [2] is reported as “++”. For the same compound, the responders at 100 mg/kg (mice) was 60%.
CSc1ccc(C(O)CNC(C)(C)C)cc1Cl (stereo not shown) [Table III No. 2] showed a responders at 100 mg/kg (mice) of 10%.
CSc1ccc(C(O)C(C)NC(C)(C)C)cc1Cl (stereo not shown) [Table III No. 3] gave an ED50 [3] greater than 5 mg/kg, an LD50 (in vivo) of 440 mg/kg and a responders at 100 mg/kg (mice) of 10%.
For CCC(C)NC(C)C(O)c1ccc(SC)c(Cl)c1 (stereo not shown) [Table III No. 8], the LD50 (in vivo) was 150 mg/kg.
In the case of CSc1ccc(C(O)CNC(C)C)cc1Cl (stereo not shown) [Table III No. 11, 1-(3-Chloro-4-methylthiophenyl)-2-isopropylaminoethanol], the ED50 [3] is reported as greater than 5 mg/kg, the LD50 (in vivo) is reported as 150 mg/kg and the “Protection against anoxia, activity” value [2] is reported as “++”. For the same compound, the responders at 100 mg/kg (mice) was 55%.
In the case of CSc1ccc(C(O)CNC(C)(C)C)cc1C (stereo not shown) [Table III No. 12], the “Protection against anoxia, activity” value [2] is reported as “+”.
CCCCNCC(O)c1ccc(SC)c(Cl)c1 (stereo not shown) [Table III No. 15] gave an LD50 (in vivo) of 110 mg/kg.
Compound CSc1ccc(C(O)C(C)N2CCC(C)CC2)cc1C (stereo not shown) [Table III No. 20] has an LD50 (in vivo) of 91 mg/kg.
Compound CSc1ccc(C(O)CNC(C)Cc2ccccc2)cc1Cl (stereo not shown) [Table III No. 22] has an LD50 (in vivo) of 55 mg/kg.
For CSc1ccc(C(O)CN2CCCCC2)cc1Cl (stereo not shown) [Table III No. 24], the Peripherical vasodilatator activity [4] was “+ ++” and the LD50 (in vivo) was 364 mg/kg.
CCC(C(O)c1ccc(SC)c(Cl)c1)N1CCOCC1 (stereo not shown) [Table III No. 28] showed an ED50 [3] greater than 5 mg/kg.
CCC(C)NCC(O)c1ccc(SC)c(C)c1 (stereo not shown) [Table III No. 33, 1-(3-Methyl-4-methylthiophenyl)-2-secbutylaminoethanol] showed an ED50 [3] of roughly 5 mg/kg and a responders at 100 mg/kg (mice) of 40%.
For CCc1cc(C(O)CNC(C)C)ccc1SC (stereo not shown) [Table III No. 47, 1-(3-Ethyl-4-methylthiophenyl)-2-isopropylaminoethanol], the “Protection against anoxia, activity” value [2] was “++” and the responders at 100 mg/kg (mice) was 65%.
CCc1cc(C(O)CNC(C)(C)C)ccc1SC (stereo not shown) [Table III No. 50] showed an ED50 [3] greater than 5 mg/kg and a responders at 100 mg/kg (mice) of 50%.
In the case of CCc1cc(C(O)CNC(C)CC)ccc1SC (stereo not shown) [Table III No. 51, 1-(3-Ethyl-4-methylthiophenyl)-2-secbutylaminoethanol], the ED50 [3] is reported as greater than 5 mg/kg and the responders at 100 mg/kg (mice) is reported as 60%.
Work on CSc1ccc(C(O)CNC(C)C)cc1F (stereo not shown) [Table III No. 58, 1-(3-fluoro-4-methylthiophenyl)-2-isopropylaminoethanol] yielded an ED50 [3] greater than 5 mg/kg and a responders at 100 mg/kg (mice) of 20%.
CSc1c(C)cc(C(O)CNC(C)C)cc1Cl (stereo not shown) [Table III No. 64] gave an ED50 [3] of 4.1 mg/kg and an LD50 (in vivo) of 182 mg/kg.
CCSc1ccc(C(O)CNC(C)(C)C)cc1C (stereo not shown) [Table III No. 73] showed an ED50 [3] of roughly 5 mg/kg and an LD50 (in vivo) of 220 mg/kg.
Work on CCSc1ccc(C(O)CNC2CCCCC2)cc1C (stereo not shown) [Table III No. 77] yielded an LD50 (in vivo) of 91 mg/kg.
CCCCCCCCSc1ccc(C(O)CNC(C)CC)cc1C (stereo not shown) [Table III No. 117] gave a responders at 100 mg/kg (mice) of 30%.
Work on CSc1ccc(C(O)CN2CCCCC2)cc1C (stereo not shown) [Table IV No. 8] yielded an ED50 ([3]; ED50, interval in brackets) of 1.6 mg/kg and a responders at 100 mg/kg (mice; [5]) of 20%.
In the case of CSc1ccc(C(O)CNC2CCCCC2)cc1C (stereo not shown) [Table IV No. 24], the ED50 [3] is reported as greater than 5 mg/kg and the responders at 100 mg/kg (mice) is reported as 40%.
Work on CSc1ccc(C(O)CN2CCC(C)CC2)cc1C (stereo not shown) [Table IV No. 27] yielded an ED50 ([3]; ED50, interval in brackets) greater than 5 mg/kg and a responders at 100 mg/kg (mice; [5]) of 20%.
For COc1cc(C(O)CNC(C)(C)C)ccc1SC (stereo not shown) [Table IV No. 33, 1-(3-Methoxy-4-methylthiophenyl)-2-tertbutylaminoethanol hydrochloride], the responders at 100 mg/kg (mice) was 20%.
In the case of CCSc1ccc(C(O)CNC2CCCCC2)cc1C (stereo not shown) [Table IV No. 51], the ED50 [3] is reported as greater than 5 mg/kg.
For CCCCSc1ccc(C(O)CN2CCC(C)CC2)cc1C (stereo not shown) [Table IV No. 63], the ED50 ([3]; ED50, interval in brackets) was 4.1 mg/kg and the responders at 100 mg/kg (mice; [5]) was 20%.
Compound CCCCSc1ccc(C(O)CNC(C)C(O)c2ccccc2)cc1C (stereo not shown) [Table IV No. 66] has a responders at 100 mg/kg (mice) of 20%.
Work on CSc1ccc(C(O)CNC(C)Cc2ccccc2)cc1C (stereo not shown) [compound 31] yielded an LD50 (in vivo) of 75 mg/kg.
For CCC(C)NCC(O)c1ccc(SC)c(C)c1 (stereo not shown) [compound 33], the Peripherical vasodilatator activity [4] was “++ +”.
With CCCC(NC(C)CC)C(O)c1ccc(SC)c(Cl)c1 (stereo not shown) [compound 40] the ED50 [3] was roughly 5 mg/kg.
For CSc1ccc(C(O)CN)cc1C (stereo not shown) [compound 41], the LD50 (in vivo) was 150 mg/kg.
CCCCCCCCNCC(O)c1ccc(SC)c(CC)c1 (stereo not shown) [compound 45] showed an LD50 (in vivo) of 75 mg/kg.
For CCc1cc(C(O)CNC(C)(C)C)ccc1SC (stereo not shown) [compound 50], the LD50 (in vivo) was 150 mg/kg.
For CCc1cc(C(O)CNC(C)CC)ccc1SC (stereo not shown) [compound 51], the Peripherical vasodilatator activity [4] was “+ ++”.
Compound CSc1c(C)cc(C(O)CN2CCCCC2)cc1Cl (stereo not shown) [compound 62] has an LD50 (in vivo) of 220 mg/kg.
Compound CCSc1ccc(C(O)CNC(C)C)cc1C (stereo not shown) [compound 74] has an LD50 (in vivo) of 150 mg/kg.
With CCCCNCC(O)c1ccc(SCC)c(C)c1 (stereo not shown) [compound 80] the ED50 [3] was greater than 5 mg/kg and the LD50 (in vivo) was 110 mg/kg.
Compound CCSc1ccc(C(O)CNCCc2ccccc2)cc1C (stereo not shown) [compound 81] has an LD50 (in vivo) of 75 mg/kg.
CCSc1ccc(C(O)CNC(C)Cc2ccccc2)cc1C (stereo not shown) [compound 83] showed an LD50 (in vivo) of 110 mg/kg.
For Cc1cc(C(O)CN2CCC(C)CC2)ccc1SCC(C)C (stereo not shown) [compound 85], the LD50 (in vivo) was 182 mg/kg.
With Cc1cc(C(O)CN2CCCCC2)ccc1SCC(C)C (stereo not shown) [compound 86] the LD50 (in vivo) was 110 mg/kg.
In the case of CCCCSc1ccc(C(O)CNC(C)(C)C)cc1C (stereo not shown) [compound 90], the LD50 (in vivo) is reported as 91 mg/kg.
For CCCCSc1ccc(C(O)CN2CCCCC2)cc1C (stereo not shown) [compound 93], the LD50 (in vivo) was 182 mg/kg.
Work on CCCCSc1ccc(C(O)CN(C)C)cc1C (stereo not shown) [compound 94] yielded an LD50 (in vivo) of 150 mg/kg.
With CCCCSc1ccc(C(O)CN2CCCC(C)C2)cc1C (stereo not shown) [compound 95] the LD50 (in vivo) was 150 mg/kg.
With CCCCSc1ccc(C(O)CN2CCC(C)CC2)cc1C (stereo not shown) [compound 96] the LD50 (in vivo) was 182 mg/kg.
Work on CCCCNCC(O)c1ccc(SCCCC)c(C)c1 (stereo not shown) [compound 97] yielded an LD50 (in vivo) of 110 mg/kg.
Compound CCCCCSc1ccc(C(O)CNC(C)(C)C)cc1C (stereo not shown) [compound 102] has an LD50 (in vivo) of 91 mg/kg.
For CCCCCSc1ccc(C(O)CNCCCC)cc1C (stereo not shown) [compound 104], the LD50 (in vivo) was 75 mg/kg.
CCCCCCSc1ccc(C(O)CNC(C)(C)C)cc1C (stereo not shown) [compound 107] showed an LD50 (in vivo) of 110 mg/kg.
Work on CCCCCCSc1ccc(C(O)CN2CCCCC2)cc1C (stereo not shown) [compound 108] yielded an LD50 (in vivo) of 182 mg/kg.
Work on CCCCCCSc1ccc(C(O)CN2CCOCC2)cc1C (stereo not shown) [compound 109] yielded an LD50 (in vivo) of 600 mg/kg.
CCCCCCSc1ccc(C(O)CNCCC)cc1C (stereo not shown) [compound 112] gave an LD50 (in vivo) of 364 mg/kg.
Compound Cc1cc(C(O)CN2CCCCC2)ccc1SC(C)C (stereo not shown) [compound 124] has an LD50 (in vivo) of 150 mg/kg.
With Cc1cc(C(O)CNC(C)(C)C)ccc1SC(C)C (stereo not shown) [compound 125] the LD50 (in vivo) was 150 mg/kg.
For Cc1cc(C(O)CN2CCOCC2)ccc1SC(C)C (stereo not shown) [compound 126], the LD50 (in vivo) was 440 mg/kg.
With Cc1cc(C(O)CNC(C)C)ccc1SC(C)C (stereo not shown) [compound 127] the LD50 (in vivo) was 182 mg/kg.
CCCCNCC(O)c1ccc(SC(C)C)c(C)c1 (stereo not shown) [compound 129] gave an LD50 (in vivo) of 46 mg/kg.
Work on Cc1cc(C(O)CNC2CCCCC2)ccc1SC(C)C (stereo not shown) [compound 130] yielded an LD50 (in vivo) of 75 mg/kg.
For CCCCCCCCNCC(O)c1ccc(SC(C)C)c(C)c1 (stereo not shown) [compound 131], the LD50 (in vivo) was 86 mg/kg.
Cc1cc(C(O)CN2CCC(C)CC2)ccc1SC(C)C (stereo not shown) [compound 133] showed an LD50 (in vivo) of 110 mg/kg.
